According to ChEMBL document CHEMBL5360610, “N-Alkyl Carbamoylimidazoles as Versatile Synthons for the Synthesis of Urea-Based PSMA Inhibitors” (ACS Med Chem Lett, 2023):
Activity calls are given as the source filed them. The calls are words filed in the database; no cut-off is given here.

biological target: T1, Glutamate carboxypeptidase 2 (Homo sapiens, UniProt Q04609); experiment: Displacement of [18F]PSMA-1007 from human PSMA expressed in human LNCaP cells by competitive binding assay; assay type: cell-based; conditions: not given
Target sequence in this assay (Q04609 whole entry): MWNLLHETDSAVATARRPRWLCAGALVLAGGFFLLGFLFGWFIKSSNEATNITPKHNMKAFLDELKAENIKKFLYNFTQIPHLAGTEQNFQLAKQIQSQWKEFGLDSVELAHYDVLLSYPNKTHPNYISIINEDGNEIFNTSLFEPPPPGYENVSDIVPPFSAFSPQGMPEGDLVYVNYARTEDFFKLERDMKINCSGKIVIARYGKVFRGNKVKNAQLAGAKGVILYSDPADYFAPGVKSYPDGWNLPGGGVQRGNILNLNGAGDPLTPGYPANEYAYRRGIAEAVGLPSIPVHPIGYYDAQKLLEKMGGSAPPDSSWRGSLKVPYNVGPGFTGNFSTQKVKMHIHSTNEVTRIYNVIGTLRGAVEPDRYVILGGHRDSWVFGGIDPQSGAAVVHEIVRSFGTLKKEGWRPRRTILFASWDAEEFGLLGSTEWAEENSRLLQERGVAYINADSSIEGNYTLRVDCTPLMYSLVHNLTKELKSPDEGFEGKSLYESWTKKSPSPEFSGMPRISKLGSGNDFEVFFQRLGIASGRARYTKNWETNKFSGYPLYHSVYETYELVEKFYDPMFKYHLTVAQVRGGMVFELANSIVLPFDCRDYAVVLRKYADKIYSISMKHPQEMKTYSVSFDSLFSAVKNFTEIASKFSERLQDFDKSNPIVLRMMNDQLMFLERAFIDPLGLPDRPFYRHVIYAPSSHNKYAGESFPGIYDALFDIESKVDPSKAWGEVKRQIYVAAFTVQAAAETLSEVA

| Compound | IC50 |
| --- | --- |
| O=C(O)CC[C@H](CC(=O)N[C@@H](CCCCNC(=O)[C@H](Cc1ccccc1)NC(=O)COc1ccc(C[C@H](NC(=O)CCC(=O)CO/N=C/c2ccc(F)cc2)C(=O)O)cc1)C(=O)O)C(=O)O | 13 nM |
| O=C(O)CC[C@H](NC(=O)N[C@@H](CCCC(=O)NCc1ccc(F)cc1)C(=O)O)C(=O)O | 1500 nM |
| O=C(O)CC[C@H](NC(=O)N[C@@H](CCCC(=O)Nc1ccc(F)nc1)C(=O)O)C(=O)O | 90 nM |
| O=C(O)CC[C@H](NC(=O)N[C@@H](CCCCNC(=O)[C@H](Cc1ccc2ccccc2c1)NC(=O)[C@H]1CC[C@H](CNC(=O)[C@H](CCC(=O)O)NC(=O)[C@H](CCC(=O)O)NC(=O)c2ccc(F)nc2)CC1)C(=O)O)C(=O)O | 4 nM |

biological target: T1, Glutamate carboxypeptidase 2; experiment: Displacement of [18F]PSMA-1007 from human PSMA expressed in human LNCaP cells at 0.1 to 100000 nM by competitive binding assay; assay type: cell-based; conditions: dose 0.1-100000 nM
Target sequence in this assay (Q04609 whole entry, looked up): as the sequence (Q04609 whole entry) above

| Compound | inhibition |
| --- | --- |
| O=C(Nc1scc(C(=O)O)c1C(=O)O)N[C@@H](CCCCNC(=O)c1ccc(F)cc1)C(=O)O | inactive |
| O=C(Nc1scc(C(=O)O)c1C(=O)O)N[C@@H](CCCCNC(=O)c1cccc(F)n1)C(=O)O | inactive |
